# Assay results published in article PMC8136953 (Veterinary Medicine and Science, 2020).
# Values joined by “and” are separate entries in the source; they are usually repeats but may differ in a detail not shown here. Equal values may be shown once. Read-outs that look alike come from different tables or passages of the source.
# Key:
# [1] = Residue depletion in muscle plus skin and withdrawal times after multiple oral dosing; assay type: in vivo, European seabass Dicentrarchus labrax; settings: 10 mg kg^−1 day^−1 for 7 days, 24°C, mean ± SD
# Procedure: Briefly, muscle plus skin samples were sheared, and subsequently 2 g of ground sample was weighed into a 50 ml centrifuge tube. Ten ml of ethyl acetate were added and the mixture was homogenized with an IKA Ultra‐Turrax T25 Disperser (IKA®‐Werke GmbH & Co. KG, Staufen, Germany) for 30 s at […]. The mixture was agitated for 20 min and then was centrifuged at 3,500 rpm/min for 10 min at 5°C. […] The combined extract was then evaporated to dryness at 45°C under nitrogen stream. Two milliliter of hexane and 1 ml of mobile phase solution were added in the residue. After gentle agitation for 5 min, the mixture was centrifuged (2,150 g for 5 min). The upper layer (hexane) was discarded and the de‐fatting step was repeated. The bottom layer (1 ml) was filtered (0.22 μm nylon filter) and then was subjected to HPLC analysis.
# The flow rate was 1.0 ml/min.
# Withdrawal period was determined at the time when the upper one‐sided 95% tolerance limit for the residue was below the MRL with 95% confidence.
# [2] = parameters: method as in Yanong et al. (2005); settings: 0‰, SO, 50 mg/kg fish, 19 g, 23–25 °C; ref Yanong et al. (2005); cited from earlier work
# [3] = parameters: method as in Lim et al. (2010); settings: ref Lim et al. (2010), cited from earlier work
# [4] = parameters: method as in Yanong et al. (2005); settings: 0‰, SO, 50 mg/kg fish, 144 g, 23–25 °C; ref Yanong et al. (2005); cited from earlier work
# [5] = parameters: method as in Huang et al. (2019); settings: 0‰, 50 g, ref Huang et al. (2019), cited from earlier work; for C max / T max / t 1/2b: SO‐FA, 25 mg/kg fish
# [6] = cited from earlier work; for Primary route of excretion of FLO and its metabolites: single oral dose 10 mg/kg fish, ref Feng et al. (2008)
# [7] = parameters: method as in Table 4; settings: after dietary delivery, different environmental conditions; ref Table 4; cited from earlier work
# [8] = Plasma pharmacokinetics of FLO after a single dietary administration
# Procedure: Apparently healthy European seabass averaging about 100 ± 12 g were obtained from a local fish farm (Selonda aquaculture S.A) and distributed in two cages (1 m^3) located within a 50 m^3 cement tank (85 fish/cage). Water was supplied by open flow and oxygen was provided continuously by bubbling air. The water temperature and salinity were 24 ± 1°C and 38‰, respectively. Fish were allowed to acclimate for 7 days prior to experimentation and fed a drug‐free commercial diet at 1.5% body weight (B.W.).
# During the trial, the experimental diet was stored at 4°C and was left to obtain ambient temperature before delivery.
# Sampling of fish was performed at predetermined time points during and post treatment (Figure 1) after anesthetization with clove oil (40 mg/L). […] At each sampling point, 10 fish were killed by a blow to the head and tissue samples were obtained. Approximately, 2 ml of blood was drawn with a needle (Microlance 23G 11/4 0.6 × 30; Becton Dickinson, Zaragoza, Spain) from the caudal vein at selected time points during treatment and transferred into heparinised test tubes. Plasma was separated from blood samples by centrifugation at 20,160 g for 10 min at 4°C. Moreover for the withdrawal study, muscle plus skin (approximately 5 g) were taken from the anterior dorsal region on days 1, 2, 3, 4 and 6 post treatment. All prepared tissue samples were immediately frozen and stored at −20°C until analysis.
# Briefly, 1 ml of plasma sample was placed in a 10 ml polypropylene centrifuge tube with 500 μl of acetonitrile:water (35:65, v/v). […] The homogenised samples were centrifuged (8,000 g for 10 min) and the supernatant was transferred to a 15 ml polypropylene centrifuge tube. The extraction step was repeated twice. The combined extract was then evaporated to dryness at 40°C under a gentle stream of nitrogen. The residue was reconstituted by 1 ml of mobile phase solution. Five milliliter of hexane were added into the tube and after mixing it was subjected to centrifugation for 5 min at 2,150 g prior to the removal of the hexane layer. The afore‐mentioned de‐fatting step was also repeated twice. The water‐based phase was filtered using 0.22 μm nylon filter and the filtrate (200 μl) was then analysed by HPLC.
# The column temperature was maintained at 30°C and the injected volume was 200 μl. As a mobile phase, (A) an aqueous solution of NaH2PO4 (0.01 M) containing 0.005 M sodium dodecyl sulphate and 0.1% triethylamine (pH 4.8 adjusted with 85% phosphoric acid) and (B) acetonitrile were used (A/B, 65:35, v/v). The flow rate was 1.0 ml/min.
# The area under the concentration–time curve (AUC0‐∞) was determined using trapezoidal method and was extrapolated to infinity.
# [9] = parameters: method as in de Ocenda et al. (2017); settings: 35‰, SO‐FA, 100 mg/kg fish, 101 g, 16 °C; ref de Ocenda et al. (2017); cited from earlier work
# [10] = 33‰, SO‐FA, cited from earlier work
# [11] = 33‰, MO, 20 × 3d mg/kg fish, 380 g, 19 °C
# [12] = 0‰, SO‐FA, 10 mg/kg fish, 98 g, 22 °C, ref Feng and Jia (2009)
# [13] = European seabass (Dicentrarchus labrax), plasma, oral, 10 mg/kg
# [14] = 24 mg/kg fish, 125 g, 23 °C, ref Feng et al. (2016)
# [15] = 5–10 mg/kg fish, 103–301 g, 29 °C, ref Feng et al. (2018)
smiles,measurement,setting,value
"CS(=O)(=O)c1ccc([C@@H](O)[C@@H](CF)NC(=O)C(Cl)Cl)cc1 [FLO, florfenicol]",Muscle plus skin FLO concentration,[1]; 144 hours after last dosing,below LOQ
same,concentration at 24 hours after last dosing,"[1]; European seabass (Dicentrarchus labrax), in vivo, 24 hours after last dosing",800 ± 1740 ng/g
same,concentration at 48 hours after last dosing,"[1]; European seabass (Dicentrarchus labrax), in vivo, 48 hours after last dosing",250 ± 640 ng/g
same,concentration at 72 hours after last dosing,"[1]; European seabass (Dicentrarchus labrax), in vivo, 72 hours after last dosing",40 ± 20 ng/g
same,concentration at 96 hours after last dosing,"[1]; European seabass (Dicentrarchus labrax), in vivo, 96 hours after last dosing",40 ± 10 ng/g
same,concentration at 144 hours after last dosing,"[1]; European seabass (Dicentrarchus labrax), in vivo, 144 hours after last dosing",30 ± 10 ng/g
same,C max,[2],2600 ng/mL
same,T max,[2],5 h
same,C max,[3]; [11],12200 ng/mL
same,WT,[3]; [11],189 h
same,Tissue distribution,[3]; multiple oral 20 mg kg^−1 day^−1 for three consecutive days,higher tissue concentrations of FLO in gills than in the other tested tissue samples
same,C max,[4],12300 ng/mL
same,T max,[4],3 h
same,WT,"[5]; MO‐FA, 25 × 3d mg/kg fish, 28 °C",198 h
same,C max,[5]; 18 °C,5900 ng/mL
same,T max,[5]; 18 °C,6.0 h
same,t 1/2b,[5]; 18 °C,26.8 h
same,C max,[5]; 28 °C,6200 ng/mL
same,T max,[5]; 28 °C,2.8 h
same,t 1/2b,[5]; 28 °C,16.1 h
same,C max,[6]; [12],4500 ng/mL
same,T max,[6]; [12],12 h
same,t 1/2b,[6]; [12],10.0 h
same,Primary route of excretion of FLO and its metabolites,[6]; freshwater hybrid tilapia,the bile duct
same,Primary route of excretion of FLO and its metabolites,[6]; seawater tilapia,mostly the gills
same,Maximum plasma concentration in other farmed fish species,[7],1.8 to 55 µg/mL
same,Tmax,[8]; [13],4 h
same,concentration at 24 hr,[8]; [13],550 ng/mL
same,AUC,"[8]; European seabass (Dicentrarchus labrax), plasma, po, 10 mg/kg",34700 ng·h/mL
same,half-life,"[8]; in vivo, po, 10 mg/kg",13 h
same,AUC,"[8]; plasma, po, 10 mg/kg",34700 ng·h/mL
same,Maximum plasma concentration,"[8]; single dietary administration 10 mg/kg, plasma, 24°C",1.6 µg/mL and 1.64 µg/mL
same,C max,[9],55400 ng/mL
same,T max,[9],12 h
same,C max,[10]; [14],28000 ng/mL
same,t 1/2b,[10]; [14],11.6 h
same,C max,[10]; [15],6000 to 13000 ng/mL
same,t 1/2b,[10]; [15],8.5 to 9.3 h
